{"source": "paper PMC8035211", "about": "(Nature Communications, 2021)", "key": {"[1]": {"target": "T1, MoChi7A (Pyricularia oryzae, UniProt G4NAH7)", "T1 construct": "gene MGG_09717", "T1 sequence (G4NAH7 21-718 limits assumed)": "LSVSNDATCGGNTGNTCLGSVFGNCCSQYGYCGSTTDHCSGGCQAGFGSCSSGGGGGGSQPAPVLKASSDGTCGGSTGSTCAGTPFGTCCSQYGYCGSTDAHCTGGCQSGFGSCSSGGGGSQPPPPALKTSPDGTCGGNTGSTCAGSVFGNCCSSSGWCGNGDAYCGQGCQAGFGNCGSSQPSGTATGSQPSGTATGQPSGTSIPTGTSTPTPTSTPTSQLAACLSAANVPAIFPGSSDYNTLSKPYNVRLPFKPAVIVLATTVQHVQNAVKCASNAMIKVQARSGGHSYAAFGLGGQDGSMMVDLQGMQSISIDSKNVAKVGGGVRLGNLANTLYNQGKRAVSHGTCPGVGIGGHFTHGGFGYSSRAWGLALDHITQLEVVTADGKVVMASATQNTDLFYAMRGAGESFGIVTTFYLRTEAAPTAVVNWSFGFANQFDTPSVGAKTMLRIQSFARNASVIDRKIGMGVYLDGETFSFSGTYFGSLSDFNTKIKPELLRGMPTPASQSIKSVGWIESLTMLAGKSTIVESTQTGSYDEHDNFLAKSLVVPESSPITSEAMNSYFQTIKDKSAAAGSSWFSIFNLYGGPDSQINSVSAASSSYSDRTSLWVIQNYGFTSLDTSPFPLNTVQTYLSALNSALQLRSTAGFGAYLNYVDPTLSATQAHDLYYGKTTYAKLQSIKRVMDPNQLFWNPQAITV", "type": "biochemical", "settings": "apparent; O2 as acceptor; 50 mM NaOAc pH 5.2, 35 °C; read-out: Enzyme / MoChi7A / Cellotriose"}, "[2]": {"target": "T2, FgCelDH7C (Fusarium graminearum, UniProt I1RWY4)", "T2 construct": "gene FGRAMPH1_01T10923", "T2 sequence (I1RWY4 24-499 limits assumed)": "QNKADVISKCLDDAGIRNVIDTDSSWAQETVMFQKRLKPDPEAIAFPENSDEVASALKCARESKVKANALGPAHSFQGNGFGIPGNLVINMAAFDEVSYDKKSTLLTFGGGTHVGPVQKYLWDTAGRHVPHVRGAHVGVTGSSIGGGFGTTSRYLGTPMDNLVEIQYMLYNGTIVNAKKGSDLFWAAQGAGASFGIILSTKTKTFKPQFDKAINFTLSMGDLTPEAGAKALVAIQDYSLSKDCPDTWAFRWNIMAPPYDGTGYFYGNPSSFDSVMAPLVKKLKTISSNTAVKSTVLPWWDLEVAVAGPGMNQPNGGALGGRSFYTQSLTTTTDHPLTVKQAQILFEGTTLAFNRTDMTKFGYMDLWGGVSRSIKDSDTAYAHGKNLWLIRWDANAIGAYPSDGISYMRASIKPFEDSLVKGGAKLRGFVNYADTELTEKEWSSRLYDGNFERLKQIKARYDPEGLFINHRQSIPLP", "type": "biochemical", "settings": "apparent, 0.1 mM DCIP as acceptor, 50 mM HEPES pH 7.0, 35 °C"}, "[3]": {"target": "T3, FgChi7B (Fusarium graminearum, UniProt A0A098DND1)", "T3 construct": "gene FGRAMPH1_01T15319", "T3 sequence (A0A098DND1 21-504 limits assumed)": "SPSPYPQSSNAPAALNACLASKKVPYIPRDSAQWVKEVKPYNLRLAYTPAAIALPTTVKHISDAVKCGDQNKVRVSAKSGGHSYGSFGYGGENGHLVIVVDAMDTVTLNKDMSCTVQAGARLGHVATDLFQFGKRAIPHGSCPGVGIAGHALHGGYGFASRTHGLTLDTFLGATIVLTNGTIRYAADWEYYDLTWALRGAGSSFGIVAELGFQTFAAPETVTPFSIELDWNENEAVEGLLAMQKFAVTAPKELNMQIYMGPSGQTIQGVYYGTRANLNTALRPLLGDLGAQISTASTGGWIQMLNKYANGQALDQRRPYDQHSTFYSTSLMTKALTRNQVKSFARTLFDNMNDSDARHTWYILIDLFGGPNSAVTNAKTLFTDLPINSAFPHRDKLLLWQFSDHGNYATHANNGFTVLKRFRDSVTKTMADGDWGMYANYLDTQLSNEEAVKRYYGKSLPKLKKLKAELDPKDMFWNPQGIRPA", "settings": "covalent; bi-covalent, 6-S-cysteinyl C162 and 8alpha-N1-histidyl H102"}, "[4]": {"target": "T2, FgCelDH7C", "type": "binding", "settings": "covalent; mono-covalent histidyl tether"}}, "note": "Read-outs that look alike come from different tables or passages of the source."}
{"smiles": "CC(=O)N[C@H]1[C@H](O[C@H]2[C@H](O)[C@@H](NC(C)=O)C(O)O[C@@H]2CO)O[C@H](CO)[C@@H](O)[C@@H]1O", "note": "(some centres unmarked) [Chitobiose]", "values": [{"measurement": "Km", "setting": "[1]", "value": "64 ± 10", "unit": "µM"}]}
{"smiles": "CC(=O)N[C@H]1C(O)O[C@H](CO)[C@H](O)[C@@H]1O", "note": "(some centres unmarked) [GalNAc]", "values": [{"measurement": "Km", "setting": "[1]", "value": "1690 ± 120", "unit": "µM"}]}
{"smiles": "OC[C@H]1O[C@@H](O[C@H]2[C@H](O)[C@@H](O)[C@H](O[C@H]3[C@H](O)[C@@H](O)C(O)O[C@@H]3CO)O[C@@H]2CO)[C@H](O)[C@@H](O)[C@@H]1O", "note": "(some centres unmarked) [Cellotriose]", "values": [{"measurement": "Km", "setting": "[2]; read-out: Enzyme / Cellotriose, read-out: Enzyme / MoChi7A / Cellotriose", "value": "3940 ± 220", "unit": "µM"}]}
{"smiles": "Cc1cc2nc3c(=O)[nH]c(=O)nc-3n(C[C@H](O)[C@H](O)[C@H](O)COP(=O)(O)OP(=O)(O)OC[C@H]3O[C@@H](n4cnc5c(N)ncnc54)[C@H](O)[C@@H]3O)c2cc1C", "note": "[FAD]", "values": [{"measurement": "crystal structure, 2.4 Å", "setting": "[3]", "value": "isoalloxazine ring of the FAD cofactor in FgChi7B is bi-covalently anchored at the C6 atom"}, {"measurement": "crystal structure, 1.6 Å", "setting": "[4]", "value": "FgCelDH7C is mono-covalently histidyl-tethered due to the substitution of the FAD-tethering cysteine to a glycine"}]}
{"smiles": "OC[C@H]1O[C@@H](O[C@H]2[C@H](O)[C@@H](O)[C@H](O[C@H]3[C@H](O)[C@@H](O)[C@H](O[C@H]4[C@H](O)[C@@H](O)C(O)O[C@@H]4CO)O[C@@H]3CO)O[C@@H]2CO)[C@H](O)[C@@H](O)[C@@H]1O", "note": "(some centres unmarked) [Cellotetraose]", "values": [{"measurement": "Km", "setting": "[2]; read-out: Enzyme / PbChi7A / Cellotetraose", "value": "6060 ± 270", "unit": "µM"}]}
{"smiles": "OC[C@H]1O[C@@H](O[C@H]2[C@H](O)[C@@H](O)C(O)O[C@@H]2CO)[C@H](O)[C@@H](O)[C@@H]1O", "note": "(some centres unmarked) [Cellobiose]", "values": [{"measurement": "Km", "setting": "[2]; read-out: Parameter / Cellobiose", "value": "5350 ± 390", "unit": "µM"}]}
{"smiles": "CC(=O)N[C@H]1C(O)O[C@H](CO)[C@@H](O)[C@@H]1O", "note": "(some centres unmarked) [GlcNAc]", "values": [{"measurement": "Km", "setting": "[1]", "value": "800 ± 50", "unit": "µM"}]}
